This passage reports T/C results from PubChem BioAssay AID212 (DTP/NCI, 2004).

In this assay the test system is BDF1 mice, colon carcinoma 38 sc, T/C %. The assay can be described thus: NCI In Vivo Anticancer Drug Screen. Data for tumor model Colon Carcinoma 38 (subcutaneous) in B6D2F1 (BDF1) mice. The essentials: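 Transplantable tumor in mice; compound-treated vs vehicle-dosed controls. Measured survival or tumor size; value = T ÷ C.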
Setting [1] is: endpoint: median tumor weight (est.), dose: 200.0 mg/kg/injection, schedule: Q07DX002 (ip), vehicle: water, higher = larger tumour.
The mark [2] stands for this setting: endpoint: median tumor weight (est.), dose: 12.5 mg/kg/injection, schedule: Q07DX002 (ip), vehicle: saline with Tween-80, higher = larger tumour.
Setting [3] is: endpoint: median tumor weight (est.), dose: 25.0 mg/kg/injection, schedule: Q07DX002 (ip), vehicle: saline with Tween-80, higher = larger tumour.
[4] abbreviates: endpoint: median tumor weight (est.), dose: 100.0 mg/kg/injection, schedule: Q07DX002 (ip), vehicle: saline with Tween-80, higher = larger tumour.
Setting [5] is: endpoint: median tumor weight (est.), dose: 200.0 mg/kg/injection, schedule: Q07DX002 (ip), vehicle: saline with Tween-80, higher = larger tumour.

“And” between values parts separate entries of the source, which are not always exact repeats. Equal entries are not always repeated. Inconclusive results are not listed.

Turning to `Nc1nc2c(ncn2C2OC(CO)C(O)C2O)c(=O)[nH]1.Nc1nc2c(ncn2C2OC(CO)C(O)C2O)c(=O)[nH]1.[NH2-].[NH2-].[Pt+2]` (stereo unspecified), the T/C by setting is: (endpoint: median tumor weight (est.), dose: 12.5 mg/kg/injection, schedule: Q07DX002 (ip), vehicle: water, higher = larger tumour) 30 % of control; (endpoint: median tumor weight (est.), dose: 25.0 mg/kg/injection, schedule: Q07DX002 (ip), vehicle: water, higher = larger tumour) 108 % of control; (endpoint: median tumor weight (est.), dose: 50.0 mg/kg/injection, schedule: Q07DX002 (ip), vehicle: water, higher = larger tumour) 96 % of control; (endpoint: median tumor weight (est.), dose: 100.0 mg/kg/injection, schedule: Q07DX002 (ip), vehicle: water, higher = larger tumour) 248 % of control; under setting [1], 117 % of control.

In the case of `CCCCCC[C@H]([C@H](C)O)n1cnc2c(N)ncnc21`, the T/C (endpoint: median survival time, dose: 22.0 mg/kg/injection, schedule: Q02DX006 (iv), vehicle: saline, higher = longer survival) is 113 % of control; the T/C (endpoint: median survival time, dose: 36.0 mg/kg/injection, schedule: Q02DX006 (iv), vehicle: saline, higher = longer survival) is 111 % of control; the T/C (endpoint: median survival time, dose: 58.0 mg/kg/injection, schedule: Q02DX006 (iv), vehicle: saline, higher = longer survival) is 92 % of control; the T/C (endpoint: median survival time, dose: 93.0 mg/kg/injection, schedule: Q02DX006 (iv), vehicle: saline, higher = longer survival) was 115 % of control; the T/C (endpoint: median tumor weight (est.), dose: 6.25 mg/kg/injection, schedule: Q07DX002 (ip), vehicle: Klucel (hydroxypropylcellulose) (HPC), higher = larger tumour) is 91 % of control; the T/C (endpoint: median tumor weight (est.), dose: 12.5 mg/kg/injection, schedule: Q07DX002 (ip), vehicle: Klucel (hydroxypropylcellulose) (HPC), higher = larger tumour) is 194 % of control. For the same compound, the T/C (endpoint: median tumor weight (est.), dose: 100.0 mg/kg/injection, schedule: Q07DX002 (ip), vehicle: Klucel (hydroxypropylcellulose) (HPC), higher = larger tumour) was 117 % of control and 103 % of control.

With `Clc1cc(Cl)c(C[N+]23CN4CN(CN(C4)C2)C3)cc1Cl`, the T/C under setting [2] is 80 % of control and 90 % of control; the T/C under setting [3] was 118 % of control.

For `CCC(C)C(=O)OC1C(=O)OC2CC3C(C)=CC(=O)C(O)C3(C)C3C4(O)OCC23C1C(C)C4O` (stereo unspecified), the T/C is, setting by setting: (endpoint: median tumor weight (est.), dose: 0.5 mg/kg/injection, schedule: Q07DX002 (ip), vehicle: suspension in saline, higher = larger tumour) 90 % of control; (endpoint: median tumor weight (est.), dose: 1.0 mg/kg/injection, schedule: Q07DX002 (ip), vehicle: suspension in saline, higher = larger tumour) 77 % of control; (endpoint: median tumor weight (est.), dose: 2.0 mg/kg/injection, schedule: Q07DX002 (ip), vehicle: suspension in saline, higher = larger tumour) 58 % of control; (endpoint: median tumor weight (est.), dose: 4.0 mg/kg/injection, schedule: Q07DX002 (ip), vehicle: suspension in saline, higher = larger tumour) 88 % of control; (endpoint: median tumor weight (est.), dose: 8.0 mg/kg/injection, schedule: Q07DX002 (ip), vehicle: suspension in saline, higher = larger tumour) 44 % of control.

On to `CC(=O)OC1C2OC3C=C(C)CCC3(CO)C(C)(C1OC(C)=O)C21CO1` (stereo unspecified), for which the T/C is 50 % of control and 61 % of control (endpoint: median tumor weight (est.), dose: 0.5 mg/kg/injection, schedule: Q07DX003 (ip), vehicle: saline, higher = larger tumour); 87 % of control and 101 % of control (endpoint: median tumor weight (est.), dose: 1.0 mg/kg/injection, schedule: Q07DX003 (ip), vehicle: saline, higher = larger tumour); 111 % of control and 117 % of control (endpoint: median tumor weight (est.), dose: 2.0 mg/kg/injection, schedule: Q07DX003 (ip), vehicle: saline, higher = larger tumour); 266 % of control (endpoint: median tumor weight (est.), dose: 2.5 mg/kg/injection, schedule: Q01DX001 (ip), vehicle: saline, higher = larger tumour); 69 % of control and 75 % of control (endpoint: median tumor weight (est.), dose: 4.0 mg/kg/injection, schedule: Q07DX003 (ip), vehicle: saline, higher = larger tumour); 231 % of control (endpoint: median tumor weight (est.), dose: 5.0 mg/kg/injection, schedule: Q01DX001 (ip), vehicle: saline, higher = larger tumour). Also, the T/C (endpoint: median tumor weight (est.), dose: 10.0 mg/kg/injection, schedule: Q01DX001 (ip), vehicle: saline, higher = larger tumour) was 173 % of control.

As for `CC(C)[C@](O)(C(=O)OCC1=CC[N+]2([O-])CC[C@@H](O)[C@@H]12)[C@H](C)O` (stereo partly specified), the T/C (endpoint: median tumor weight (est.), dose: 50.0 mg/kg/injection, schedule: Q07DX003 (ip), vehicle: water, higher = larger tumour) is 66 % of control; the T/C (endpoint: median tumor weight (est.), dose: 100.0 mg/kg/injection, schedule: Q07DX003 (ip), vehicle: water, higher = larger tumour) was 185 % of control; the T/C under setting [1] was 73 % of control; the T/C (endpoint: median tumor weight (est.), dose: 200.0 mg/kg/injection, schedule: Q07DX003 (ip), vehicle: water, higher = larger tumour) is 123 % of control; the T/C (endpoint: median tumor weight (est.), dose: 400.0 mg/kg/injection, schedule: Q07DX002 (ip), vehicle: water, higher = larger tumour) is 92 % of control; the T/C (endpoint: median tumor weight (est.), dose: 400.0 mg/kg/injection, schedule: Q07DX003 (ip), vehicle: water, higher = larger tumour) is 71 % of control. Also, the T/C is 64 % of control (endpoint: median tumor weight (est.), dose: 800.0 mg/kg/injection, schedule: Q07DX002 (ip), vehicle: water, higher = larger tumour); 68 % of control (endpoint: median tumor weight (est.), dose: 800.0 mg/kg/injection, schedule: Q07DX003 (ip), vehicle: water, higher = larger tumour); 48 % of control (endpoint: median tumor weight (est.), dose: 1600.0 mg/kg/injection, schedule: Q07DX002 (ip), vehicle: water, higher = larger tumour).

For `CC1=C(O)C(=O)[C@@H]2O[C@@H]2C1=O`, the T/C by setting is: (endpoint: median tumor weight (est.), dose: 3.12 mg/kg/injection, schedule: Q07DX002 (ip), vehicle: saline, higher = larger tumour) 90 % of control; (endpoint: median tumor weight (est.), dose: 6.25 mg/kg/injection, schedule: Q07DX002 (ip), vehicle: saline, higher = larger tumour) 106 % of control; (endpoint: median tumor weight (est.), dose: 12.5 mg/kg/injection, schedule: Q07DX002 (ip), vehicle: saline, higher = larger tumour) 71 % of control.

With `O=C1NC(O)CCN1C1OC(CO)C(O)C1O` (stereo unspecified), the T/C is 153 % of control (endpoint: median tumor weight (est.), dose: 100.0 mg/kg/injection, schedule: Q07DX002 (ip), vehicle: saline, higher = larger tumour); 94 % of control (endpoint: median tumor weight (est.), dose: 100.0 mg/kg/injection, schedule: Q07DX003 (ip), vehicle: saline, higher = larger tumour); 192 % of control (endpoint: median tumor weight (est.), dose: 200.0 mg/kg/injection, schedule: Q07DX002 (ip), vehicle: saline, higher = larger tumour); 91 % of control (endpoint: median tumor weight (est.), dose: 200.0 mg/kg/injection, schedule: Q07DX003 (ip), vehicle: saline, higher = larger tumour); 89 % of control (endpoint: median tumor weight (est.), dose: 400.0 mg/kg/injection, schedule: Q07DX002 (ip), vehicle: saline, higher = larger tumour); 157 % of control (endpoint: median tumor weight (est.), dose: 400.0 mg/kg/injection, schedule: Q07DX003 (ip), vehicle: saline, higher = larger tumour). The T/C (endpoint: median tumor weight (est.), dose: 800.0 mg/kg/injection, schedule: Q07DX002 (ip), vehicle: saline, higher = larger tumour) is 113 % of control.

For the compound `NCC1CCC(C(=O)O)CC1` (stereo unspecified), the T/C runs as follows: under setting [3], 83 % of control; (endpoint: median tumor weight (est.), dose: 50.0 mg/kg/injection, schedule: Q07DX002 (ip), vehicle: saline with Tween-80, higher = larger tumour) 104 % of control; under setting [4], 99 % of control; under setting [5], 102 % of control.

As for `O=C(N/N=C\c1cc(Br)cc(Br)c1O)N/N=C/c1cc(Br)cc(Br)c1O`, the T/C by setting is: under setting [2], 119 % of control; under setting [4], 90 % of control; under setting [5], 102 % of control; (endpoint: median tumor weight (est.), dose: 400.0 mg/kg/injection, schedule: Q07DX002 (ip), vehicle: saline with Tween-80, higher = larger tumour) 92 % of control.

With `C/C=C(\C)C(=O)OC1C(C)=C2C(C1OC(=O)CCCC)C(C)(OC(C)=O)CC(OC(=O)CCCC)C1(O)C2OC(=O)C1(C)O` (stereo unspecified), the T/C is, setting by setting: (endpoint: median tumor weight (est.), dose: 1.68 mg/kg/injection, schedule: Q07DX002 (ip), vehicle: Klucel (hydroxypropylcellulose) (HPC), higher = larger tumour) 54 % of control; (endpoint: median tumor weight (est.), dose: 3.37 mg/kg/injection, schedule: Q07DX002 (ip), vehicle: Klucel (hydroxypropylcellulose) (HPC), higher = larger tumour) 87 % of control; (endpoint: median tumor weight (est.), dose: 6.75 mg/kg/injection, schedule: Q07DX002 (ip), vehicle: Klucel (hydroxypropylcellulose) (HPC), higher = larger tumour) 61 % of control; (endpoint: median tumor weight (est.), dose: 13.5 mg/kg/injection, schedule: Q07DX002 (ip), vehicle: Klucel (hydroxypropylcellulose) (HPC), higher = larger tumour) 105 % of control.

With `O=c1[nH]c(=O)n([C@H]2CCCO2)cc1F`, the T/C is 166 % of control (endpoint: median tumor weight (est.), dose: 40.0 mg/kg/injection, schedule: Q07DX003 (ip), vehicle: Klucel (hydroxypropylcellulose) (HPC), higher = larger tumour); 116 % of control (endpoint: median tumor weight (est.), dose: 80.0 mg/kg/injection, schedule: Q07DX003 (ip), vehicle: Klucel (hydroxypropylcellulose) (HPC), higher = larger tumour); 57 % of control (endpoint: median tumor weight (est.), dose: 160.0 mg/kg/injection, schedule: Q07DX003 (ip), vehicle: Klucel (hydroxypropylcellulose) (HPC), higher = larger tumour); 25 % of control (endpoint: median tumor weight (est.), dose: 320.0 mg/kg/injection, schedule: Q07DX003 (ip), vehicle: Klucel (hydroxypropylcellulose) (HPC), higher = larger tumour).
